In patent publication US20090220438A1, “CHROMEN-4-ONE DERIVATIVES AS SELF-TANNING SUBSTANCE” (MERCK PATENT GMBH, priority 2006, published 2009):

Legend:
[1] = tested on: primary normal human melanocytes (R6-NHEM-2); experiment: Melanogenesis assay (melanin content after 240 hours incubation, OD at 405 nm against melanin standard); type: cell-based; details: for Melanin: 240 hours incubation
Procedure: The action of the compounds of the formula I as tanning agents is tested through the ability to increase melanin synthesis. The reference used is kojic acid, which acts on melanin synthesis and prevents a possible brown coloration of the skin. It can be seen from Table 1 that the compounds Ia to 1 g according to the invention are distinguished by the fact that—after topical application—they induce the formation of skin-inherent pigments in the skin, increase melanin synthesis in the skin and in this way produce enhanced tanning of the skin. They have no adverse health effects, are non-irritant and easy to handle, and the resultant hue naturally corresponds to that of the natural healthy skin colour. The tanning obtained is light-fast and cannot be washed off since it corresponds to natural tanning. To this end, primary normal human melanocytes (R6-NHEM-2)* are cultivated in 24 microtitre plates (96-well, 120,000 cells per tube). Two additional plates are carried out, one for evaluation of the viability of the cells (standard MTT assay) and a second for protein investigation (using a […] standard protocol). After 50% confluence, the culture medium is replaced by fresh culture medium which comprises either the control solution (KA or IBMX) or the 7 solutions to be investigated. Each experiment is repeated 3 times. The cells are incubated at 37° C. (and 5% CO2) for 240 hours, during which the medium is changed every 3 days. After incubation, monolayers are rinsed, the cells are destroyed, and melanin is extracted by means of a 0.5 M NaOH solution. *NHEM-2=normal human epidermal melanocytes (cell type) The optical density (OD) of each experimentally determined value is measured at 405 nm against the melanin standard (standard curve 0.39 to 100 μg/ml of melanin, Sigma M8631). The measurement results are quoted in μg/ml of melanin and in percent of the negative untreated control.

[2] = Tanning activity of intermediates or precursors (statement, no method given)
[3] = Homo sapiens, Melanocyte, 240 h, 200 μM, percent of the negative untreated control
[4] = Homo sapiens, Melanocyte, 240 h, 8 μM, percent of the negative untreated control
[5] = Homo sapiens, Melanocyte, 240 h, 40 μM, percent of the negative untreated control
[6] = Homo sapiens, Melanocyte, 240 h, 1.6 μM, percent of the negative untreated control

Compound | Melanin ([1]; 200 μM) | activity at 200 µM [1, 3] | Melanin ([1]; 8 μM) | Melanin ([1]; 40 μM) | activity at 8 µM [1, 4] | activity at 40 µM [1, 5] | Melanin ([1]; 1.6 μM) | activity at 1.6 µM [1, 6] | further results
CC(C)Cn1c(=O)n(C)c(=O)c2[nH]cnc21 [IBMX, 3-isobutyl-1-methylxanthine, reference compound] | 15.39 µg/mL | 166% | – | – | – | – | – | – | –
COCC(=O)c1c(COC)oc2cc(O)cc(O)c2c1=O [IIa, 5,7-dihydroxy-3-(2-methoxyacetyl)-2-methoxymethyl-1-benzopyran-4-one] | – | – | – | – | – | – | – | – | Tanning activity (in words) [2]: have a tanning activity
COCc1cc(=O)c2c(O)cc(O)cc2o1 [Ia, 5,7-dihydroxy-2-methoxymethylchromen-4-one] | – | – | – | – | – | – | – | – | Melanin ([1]; 50 μM): 17.87 µg/mL; Melanin ([1]; 150 μM): 22.14 µg/mL; Melanin ([1]; 450 μM): 19.98 µg/mL; activity at 50 µM ([1]; Homo sapiens, Melanocyte, 240 h, 50 μM, percent of the negative untreated control): 192%; activity at 150 µM ([1]; Homo sapiens, Melanocyte, 240 h, 150 μM, percent of the negative untreated control): 239%; activity at 450 µM ([1]; Homo sapiens, Melanocyte, 240 h, 450 μM, percent of the negative untreated control): 215%
COCc1oc2cc(O)cc(O)c2c(=O)c1OC [Ib, 5,7-dihydroxy-3-methoxy-2-methoxymethylchromen-4-one] | 25.2 µg/mL | 128% | 20.9 µg/mL | 23.7 µg/mL | 106% | 120% | – | – | –
O=c1c(O)c(CO)oc2cc(O)cc(O)c12 [Ic] | 27.6 µg/mL | 139% | 20.8 µg/mL | 23.8 µg/mL | 105% | 120% | – | – | –
COc1c(C)oc2cc(O)cc(O)c2c1=O [Id, 5,7-dihydroxy-3-methoxy-2-methylchromen-4-one] | – | – | 22.0 µg/mL | 27.0 µg/mL | 112% | 137% | 20.8 µg/mL | 106% | –
Cc1oc2cc(O)cc(O)c2c(=O)c1O [Ie, 2-methyl-3,5,7-trihydroxychromen-4-one] | 27.2 µg/mL | 138% | 20.6 µg/mL | 23.9 µg/mL | 104% | 121% | – | – | –
O=c1ccoc2cc(O)ccc12 [If, 7-hydroxychromen-4-one] | – | – | 20.3 µg/mL | 24.7 µg/mL | 102% | 124% | 19.9 µg/mL | 100% | –
O=c1ccoc2c(O)c(O)ccc12 [Ig, 7,8-dihydroxychromen-4-one] | – | – | 19.8 µg/mL | – | 100% | – | 19.9 µg/mL | 100% | Melanin ([1]; 0.32 μM): 20.7 µg/mL; activity at 0.32 µM ([1]; Homo sapiens, Melanocyte, 240 h, 0.32 μM, percent of the negative untreated control): 104%
O=c1cc(CO)occ1O [Kojic acid, kojic acid, reference compound] | – | – | – | – | – | – | – | – | Melanin ([1]; 560 μM): 5.55 µg/mL; activity at 560 µM ([1]; Homo sapiens, Melanocyte, 240 h, 560 μM, percent of the negative untreated control): 55%
